Data published in patent US20090054403A1, “Treatment of Post-Traumatic Stress Disorder” (priority 2007, published 2009).

Tests used:
pre-pulse inhibition = test: Pre-pulse inhibition of acoustic startle on day ten of chronic dosing
Protocol: (§1) The effects of chronic dosing of nepicastat were examined. Between three and thirteen days prior to the first dosing day the rats were placed inside the startle apparatus and after a five minute acclimation period they were presented with a 118 dB noise burst on average once a minute (a variable inter-trial interval ranging between 30 and 90 seconds will be used) for 20 minutes. The startle responses were measured and a mean for the last twenty startle response was calculated for each rat.
(§2) Acoustic startle reactivity (a series of muscle contractions elicited by an intense burst of noise with a rapid onset), and pre-pulse inhibition (sensorimotor gating measured by analyzing any decrease in startle reactivity which occurs when a startling stimulus is immediately preceded by a non startling stimulus) were both measured in eight SR-Lab (San Diego Instruments, San Diego, Calif.) test stations. The rats were placed individually in a Plexiglas cylinder (10 cm diameter) which was housed in a ventilated sound-attenuating enclosure. Acoustic noise bursts (a broad band noise with a rise time and fall time of 1 msec) were presented via a speaker mounted 30 cm above the animal. Also, these speakers produced a 68 dB level of background noise throughout all test sessions. […] A decibel meter was used to calibrate the speakers in each of the eight test station to ±1% of the mean. Additionally, a SR-Lab calibrating instrument was used to calibrate each of the eight startle detection apparatuses to ±2% of the mean. Startle reactivity and pre-pulse inhibition tests were run concurrently immediately alter the motor activity test (about 4 hours and 40 minutes after the morning daily injection of nepicastat, and SKF-102698, and 10 minutes after a supplemental administration of clonidine and d-amphetamine on dosing day ten).

locomotor activity = test: Locomotor activity after acute dosing; format: in vivo, Sprague Dawley rats; conditions: 4 h; nepicastat 3-100 mg/kg, SKF-102698 100 mg/kg, clonidine 40 μg/kg
Source text: Changes in these behaviors may therefore reflect activity of these compounds in the central nervous system. […] Rats were housed under a normal light/dark cycle with lights on between 0900 Hrs. and 2100 Hrs. Animals were housed in pairs in standard metal wire cages, and food and water were allowed ad libitum. The locomotor activity boxes consisted of a Plexiglas® box measuring 18″×18″ by 12″ high. Surrounding the Plexiglas® boxes were Omnitech Digiscan Monitors (model # RXXCM 16) which consisted of a one inch ban of photobeams and photosensors numbering 32 per box. The number of photobeam breaks were analyzed by an Omnitech Digiscan Analyzer (model # DCM-8). […] Prior to drug administration, each of seventy-two rats was placed in the startle apparatus, and after a 5 minute adaption period they were presented with an acoustic noise burst every 20 seconds for 15 minutes (45 startles total). The average startle was calculated for each rat by taking the mean of startle number 11 through 45 (the first ten startles will be disregarded). Sixty-four of these rats were then placed in one of eight treatment groups such that each group had similar mean startle values. The eight treatment groups were as follows: […] Each day after this testing procedure, eight rats (one rat from each of the eight treatment groups) was injected with their assigned drug treatment and immediately placed individually in a motor activity box. The rats motor activity was monitored for four hours. Next, the rats were placed in a transfer cage for fifteen minutes. At the beginning of this fifteen minutes the rat that has been assigned the clonidine treatment will receive another injection of 40 μg/kg. […] To evaluate motor activity, horizontal activity (number of photobeams broken), number of movements, and rest time were measured. Each parameter was analyzed separately. At each time interval (or called sample), a two-way analysis of variance (ANOVA) was performed using the ranked data (nonparametric technique) to test for the treatment effect blocked by day.

[1] = tested on: acoustic startle reactivity; test: Acoustic startle reactivity after acute dosing; format: in vivo, Sprague Dawley rats; conditions: nepicastat 3-100 mg/kg, SKF-102698 100 mg/kg, clonidine 40 μg/kg
Protocol: A piezoelectric accelerometer transforms the subject's movement into an arbitrary voltage on a scale of 0 to 4095. Prior to drug administration, each of seventy-two rats was placed in the startle apparatus, and after a 5 minute adaption period they were presented with an acoustic noise burst every 20 seconds for 15 minutes (45 startles total). The average startle was calculated for each rat by taking the mean of startle number 11 through 45 (the first ten startles will be disregarded). Sixty-four of these rats were then placed in one of eight treatment groups such that each group had similar mean startle values. The eight treatment groups were as follows: […] Each day after this testing procedure, eight rats (one rat from each of the eight treatment groups) was injected with their assigned drug treatment and immediately placed individually in a motor activity box. The rats motor activity was monitored for four hours. Next, the rats were placed in a transfer cage for fifteen minutes. […] To evaluate startle reactivity, for the 200 milliseconds immediately succeeding each startle the average force exerted by each startled rat over the entire 200 milliseconds, and the maximum force, were measured. […] The startle responses were analyzed using analysis of covariance. […] Therefore, the startle responses were analyzed by time. […]

[2] = tested on: acoustic startle reactivity; test: Acoustic startle reactivity on day ten of chronic dosing; conditions: rat, in vivo, po
Protocol: as §1, §2

body core temperature = test: Body core temperature during 10 day chronic dosing; conditions: b.i.d. oral: nepicastat 5, 15, 50 mg/kg; SKF-102698 50 mg/kg; clonidine 20 ug/kg; d-amphetamine 2 mg/kg; days 1, 5, 10
Protocol: as §1
Rat body core temperatures were obtained by inserting the rectal probe 2 cm into the colon of each rat. Each rat's body core temperature was measured three times and the average of the three reading was calculated. Body core temperature readings were obtained immediately prior to the ten day chronic dosing schedule (to obtain a baseline), and three and half hour after the morning daily dose of nepicastat, and SKF-102698, and 15 minutes prior to the daily administration of clonidine and d-amphetamine, on dosing days one, five and ten. […] Both clonidine (an alpha2 agonist), and d-amphetamine (a dopamine releaser) were used as the positive controls for this assay.
An overall one-way ANOVA with a main effect for treatment was performed at each time on the change from baseline for each animal. Subsequent t-tests were performed for each comparison of interest.

[3] = Change of body weight during 10 day chronic dosing; conditions: 10 days b.i.d. oral dosing
Protocol: as §1
The change from pre-dose in body weights was calculated for each animal for the analysis. A repeated measures two-way ANOVA was used to test for the overall effects of treatment, time and treatment by time interaction. One-way ANOVAS were then performed to test the treatment effect at each day.

[4] = tested on: spontaneous motor activity; test: Spontaneous motor activity on day ten of chronic dosing; conditions: day ten of b.i.d. oral dosing, 1 hour
Protocol: as §1
The animals were tested in an enclosed room with a white noise generator running. Motor activity tests were conducted immediately after the body core temperature reading taken on dosing day ten (about 3 hours and 35 minutes after the morning daily dose of nepicastat, and SKF-102698, and 20 minutes prior to the daily administration of clonidine and d-amphetamine on dosing day ten). Motor activity tests were run for one hour. A diagnostic program was run on each of the motor activity chambers prior to each test session to assure that the photo beams and light sensors were operating properly. […] D-amphetamine was used as the positive control for this assay.
Each rats spontaneous locomotion was obtained by calculating the total number of photobeams that the subject broke during the testing session.
Spontaneous motor activity was measured for each animal every 15 min for 1 hour. Each time block (every 15 min) was analyzed separately. Kruskal-Wallis test (nonparametric technique) was performed to test for the difference between treatment groups. If the overall significant difference […], Bonferroni's adjustment for multiple comparisons is then made.

| SMILES | percent prepulse inhibition vs vehicle (pre-pulse inhibition; rat, in vivo, po) | horizontal activity vs vehicle (locomotor activity) | number of movements vs vehicle (locomotor activity) | rest time vs vehicle (locomotor activity) | maximum and average startle response vs vehicle [1] | acoustic startle reactivity vs vehicle [2] | body core temperature (body core temperature) | percent prepulse inhibition vs vehicle (pre-pulse inhibition; day ten of b.i.d. oral dosing) | change in body weight from pre-dose vs vehicle [3] | spontaneous motor (locomotor) activity vs vehicle [4] |
| --- | --- | --- | --- | --- | --- | --- | --- | --- | --- | --- |
| Clc1cccc(Cl)c1N=C1NCCN1 [clonidine] | just significantly higher percent prepulse inhibition | significantly more horizontal activities at 2 and 2.5 hours | significantly more movements at 2 hours | significantly less rest time at 2 hours | statistically significantly lower | significantly reduced | – | – | – | – |
| C[C@H](N)Cc1ccccc1 [d-amphetamine] | – | – | – | – | – | – | significantly increasing body core temperature on day one | Neither d-amphetamine nor SKF 102698 was significantly different | significantly smaller change in body weight | significantly higher locomotor activity |
